In brackets after ≈: the same amount, converted by molar mass. Activity calls are given as the source filed them. The calls are words filed in the database; no cut-off is given here.
Legend:
[1] = test system: Candida albicans; test: Antifungal activity against FLC-sensitive Candida albicans SC5314 measured after 24 hrs by microdilution method; format: functional
[2] = test system: Candida albicans; test: Synergistic antifungal activity against FLC-sensitive Candida albicans SC5314 measured after 24 hrs in presence of fluconazole by microdilution method; format: functional
[3] = test system: Candida albicans; test: Synergistic antifungal activity against Clinical FLC-resistant Candida albicans 23 measured after 24 hrs in presence of fluconazole by microdilution method; format: functional
[4] = test system: Candida albicans; test: Antifungal activity against clinical FLC-resistant Candida albicans 808 measured after 24 hrs by microdilution method; format: functional
[5] = test system: Candida albicans; test: Antifungal activity against clinical FLC-resistant Candida albicans 381 measured after 24 hrs by microdilution method; format: functional
[6] = test system: Candida albicans; test: Antifungal activity against clinical FLC-resistant Candida albicans 800 measured after 24 hrs by microdilution method; format: functional
[7] = test system: Candida albicans; test: Antifungal activity against clinical FLC-resistant Candida albicans 799 measured after 24 hrs by microdilution method; format: functional
[8] = test system: Candida albicans; test: Antifungal activity against FLC-resistant Candida albicans ATCC 10231 measured after 24 hrs by microdilution method; format: functional
[9] = test system: Candida albicans; test: Synergistic antifungal activity against clinical FLC-resistant Candida albicans 808 measured after 24 hrs by microdilution method; format: functional
[10] = test system: Candida albicans; test: Synergistic antifungal activity against clinical FLC-resistant Candida albicans 187 assessed as fractional inhibitory concentration index measured after 24 hrs in presence of fluconazole by microdilution method; format: functional
[11] = test system: Candida albicans; test: Synergistic antifungal activity against clinical FLC-resistant Candida albicans 808 assessed as fractional inhibitory concentration index measured after 24 hrs by microdilution method; format: functional
[12] = test system: Candida albicans; test: Synergistic antifungal activity against clinical FLC-resistant Candida albicans 381 assessed as fractional inhibitory concentration index measured after 24 hrs by microdilution method; format: functional
[13] = test system: Candida albicans; test: Synergistic antifungal activity against clinical FLC-resistant Candida albicans 800 assessed as fractional inhibitory concentration index measured after 24 hrs by microdilution method; format: functional
[14] = test system: Candida albicans; test: Synergistic antifungal activity against clinical FLC-resistant Candida albicans 3816 assessed as fractional inhibitory concentration index measured after 24 hrs by microdilution method; format: functional
[15] = test system: Candida albicans; test: Synergistic antifungal activity against clinical FLC-resistant Candida albicans 4508 assessed as fractional inhibitory concentration index measured after 24 hrs by microdilution method; format: functional
[16] = test system: Candida albicans; test: Synergistic antifungal activity against clinical FLC-resistant Candida albicans 3511 assessed as fractional inhibitory concentration index measured after 24 hrs by microdilution method; format: functional
[17] = test system: Candida albicans; test: Synergistic antifungal activity against clinical FLC-resistant Candida albicans 4574 assessed as fractional inhibitory concentration index measured after 24 hrs by microdilution method; format: functional
[18] = test system: Candida albicans; test: Synergistic antifungal activity against FLC-resistant Candida albicans ATCC 10231 assessed as fractional inhibitory concentration index measured after 24 hrs by microdilution method; format: functional
[19] = test system: Candida albicans; test: Synergistic antifungal activity against FLC-resistant Candida albicans ATCC 14053 assessed as inhibition of rhodamine 6G efflux measured within 30 mins in presence of fluconazole by Rhodamine 6G staining based fluorescence assay; format: functional, organism-based
[20] = test system: Candida albicans; test: Antifungal activity against FLC-resistant Candida albicans ATCC 14053 cultured in spider medium assessed as inhibition of hyphal formation at 1 ug/ml measured after 2 hrs by inverted microscopy; format: functional, organism-based; conditions: dose 1.0 µg/ml
[21] = test system: Candida albicans; test: Synergistic antifungal activity against FLC-resistant Candida albicans ATCC 14053 assessed as inhibition of hyphal formation by measuring down regulation of CYR1 gene expression at 1 ug/ml measured after 16 to 18 hrs in presence of fluconazole by qRT-PCR analysis; format: functional, organism-based; conditions: dose 1.0 µg/ml, time 16-18 hrs
[22] = test system: Candida albicans; test: Synergistic antifungal activity against FLC-resistant Candida albicans ATCC 14053 cultured in spider medium assessed as inhibition of hyphal formation at 1 ug/ml measured after 4 to 8 hrs in presence of fluconazole and dibutyryl-cAMP by inverted microscopy; format: functional, organism-based; conditions: dose 1.0 µg/ml, time 4-8 hrs
[23] = test system: Candida albicans; test: Induction of mitochondrial membrane potential loss in FLC-resistant Candida albicans ATCC 14053 at 1 ug/mL measured after 16 to 18 hrs in presence of fluconazole by JC-1 staining based fluorescence assay; format: functional, organism-based; conditions: dose 1.0 µg/ml, time 16-18 hrs
[24] = Toxicity in Balb/c mouse assessed as death at 7.5 to 15 mg/kg, ig measured daily for 6 days in presence of fluconazole; format: organism-based; conditions: in vivo, po, 144 h, dose 7.5-15 mg/kg, time 6 day
[25] = test system: Candida albicans; test: In vivo antifungal activity against FLC-resistant Candida albicans ATCC 14053 infected in Balb/c mouse assessed as survival rate at 15 mg/kg, ig measured daily for 6 days (Rvb < 20%); format: functional; conditions: ATCC 14053, po, 144 h, time 6 day
[26] = Toxicity in Balb/c mouse infected with FLC-resistant Candida albicans ATCC 14053 assessed as weight loss at 7.5 to 15 mg/kg, ig measured daily for 6 days in presence of fluconazole; format: organism-based; conditions: in vivo, po, 144 h, dose 7.5-15 mg/kg, time 6 day
[27] = test system: Candida albicans; test: In vivo antifungal activity against FLC-resistant Candida albicans ATCC 14053 infected in Balb/c mouse assessed as reduction in lung fungal load at 7.5 to 15 mg/kg, ig measured after 6 days in presence of fluconazole; format: functional, organism-based; conditions: dose 7.5-15 mg/kg, time 6.0 day
[28] = test system: Candida albicans; test: In vivo antifungal activity against FLC-resistant Candida albicans ATCC 14053 infected in Balb/c mouse assessed as increase in organ coefficients of thymus at 7.5 to 15 mg/kg, ig measured after 6 days in presence of fluconazole; format: functional, organism-based; conditions: dose 7.5-15 mg/kg, time 6.0 day
[29] = test system: Candida albicans; test: In vivo antifungal activity against FLC-resistant Candida albicans ATCC 14053 infected in Balb/c mouse assessed as restoration of normal kidney morphology at 15 mg/kg, ig measured after 6 days by H and E staining based histopathological analysis; format: functional, organism-based; conditions: time 6.0 day
[30] = test system: Candida albicans; test: In vivo antifungal activity against FLC-resistant Candida albicans ATCC 14053 infected in Balb/c mouse assessed as restoration of normal glomeruli morphology at 15 mg/kg, ig measured after 6 days by H and E staining based histopathological analysis; format: functional, organism-based; conditions: time 6.0 day
[31] = test system: Candida albicans; test: In vivo antifungal activity against FLC-resistant Candida albicans ATCC 14053 infected in Balb/c mouse assessed as restoration of normal lung morphology at 15 mg/kg, ig measured after 6 days by H and E staining based histopathological analysis; format: functional, organism-based; conditions: time 6.0 day
[32] = test system: Candida albicans; test: In vivo antifungal activity against FLC-resistant Candida albicans ATCC 14053 infected in Balb/c mouse assessed as reduction in severity of lesions in kidney at 15 mg/kg, ig measured after 6 days by H and E staining based histopathological analysis; format: functional, organism-based; conditions: time 6.0 day
[33] = test system: Candida albicans; test: In vivo antifungal activity against FLC-resistant Candida albicans ATCC 14053 infected in Balb/c mouse assessed as reduction in renal injury at 15 mg/kg, ig measured after 6 days by H and E staining based histopathological analysis; format: functional, organism-based; conditions: time 6.0 day
[34] = test system: Candida albicans; test: In vivo antifungal activity against FLC-resistant Candida albicans ATCC 14053 infected in Balb/c mouse assessed as restoration of kidney morphology at 7.5 to 15 mg/kg, ig measured after 6 days in presence of fluconazole by H and E staining based histopathological analysis; format: functional, organism-based; conditions: dose 7.5-15 mg/kg, time 6.0 day
[35] = test system: Candida albicans; test: In vivo antifungal activity against FLC-resistant Candida albicans ATCC 14053 infected in Balb/c mouse assessed as reduction in infiltration of inflammatory cells at 7.5 to 15 mg/kg, ig measured after 6 days in presence of fluconazole by H and E staining based histopathological analysis; format: functional, organism-based; conditions: dose 7.5-15 mg/kg, time 6.0 day

Compound CN1CCN(c2nc3ccccc3cc2/C=C/C(=O)c2ccc(N3CCN(Cc4ccc(C(F)(F)F)cc4)CC3)cc2)CC1 has an MIC80 [1] of 27.8 µg/mL (≈ 46.3 µM), an MIC80 [2] of 0.99 µg/mL and an MIC80 [3] of 1.2 µg/mL. For the same compound, the MIC80 [4] was > 40 µg/mL, the MIC80 [5] was > 40 µg/mL and the MIC80 [6] was > 40 µg/mL. The MIC80 [7] was > 40 µg/mL, the MIC80 [8] was > 40 µg/mL and the MIC80 [9] was 0.38 µg/mL. For the same compound, the “fractional inhibitory concentration index (FICI)” value [10] was 0.01, the “fractional inhibitory concentration index (FICI)” value [11] was 0.01 and the “fractional inhibitory concentration index (FICI)” value [12] was 0.03. The “fractional inhibitory concentration index (FICI)” value [13] was 0.03, the “fractional inhibitory concentration index (FICI)” value [14] was 0.03 and the “fractional inhibitory concentration index (FICI)” value [15] was 0.03. The “fractional inhibitory concentration index (FICI)” value [16] was 0.15, the “fractional inhibitory concentration index (FICI)” value [17] was 0.02 and the “fractional inhibitory concentration index (FICI)” value [18] was 0.14. For the same compound, the inhibition [19] was “inactive”, the inhibition [20] was “inactive” and the inhibition [21] was “Active”. For the same compound, the inhibition [22] was “inactive”, the Activity [23] was “Active” and the Activity [24] was “Non-Toxic”. The survival at 15 mg/kg [25] was 30%, the Activity [26] was “Non-Toxic” and the Activity [27] was “inactive”. For the same compound, the Activity [28] was “Active”, the Activity [29] was “inactive” and the Activity [30] was “inactive”. For the same compound, the Activity [31] was “inactive”, the Activity [32] was “inactive” and the Activity [33] was “inactive”. The Activity [34] was “Active” and the Activity [35] was “Active”.
